The results in this text go back to US10246453B2, “Benzenesulfonamide compounds and their use as therapeutic agents” (Xenon Pharmaceuticals Inc., priority 2016, dated 2019).

Structures are written as SMILES. Counter-ions that a name gives are not always drawn.

The target of one data set is NaV1.1 (Homo sapiens (Human), UniProt P35498). Kind of data set: Sodium Influx Assay (Flux), NaV1.1. The class given is cell-based. Conditions: Trex HEK293 cells, ANG2 dye; arithmetic mean.
The target in another data set is NaV1.6 (Homo sapiens (Human), UniProt Q9UQD0). As to the kind of experiment: Sodium Influx Assay (Flux), NaV1.6. Conditions: read-out: Flux NaV1.6 IC50; Trex HEK293 cells, ANG2 dye; arithmetic mean.
The next data set addresses NaV1.5 (Homo sapiens (Human), UniProt Q14524). Kind of data set: Sodium Influx Assay (Flux), NaV1.5. To be noted: read-out: Flux NaV1.5 IC50; Trex HEK293 cells, ANG2 dye; arithmetic mean.

Chain of NaV1.5 (Q14524 other isoform, or with tags, fused parts or gaps): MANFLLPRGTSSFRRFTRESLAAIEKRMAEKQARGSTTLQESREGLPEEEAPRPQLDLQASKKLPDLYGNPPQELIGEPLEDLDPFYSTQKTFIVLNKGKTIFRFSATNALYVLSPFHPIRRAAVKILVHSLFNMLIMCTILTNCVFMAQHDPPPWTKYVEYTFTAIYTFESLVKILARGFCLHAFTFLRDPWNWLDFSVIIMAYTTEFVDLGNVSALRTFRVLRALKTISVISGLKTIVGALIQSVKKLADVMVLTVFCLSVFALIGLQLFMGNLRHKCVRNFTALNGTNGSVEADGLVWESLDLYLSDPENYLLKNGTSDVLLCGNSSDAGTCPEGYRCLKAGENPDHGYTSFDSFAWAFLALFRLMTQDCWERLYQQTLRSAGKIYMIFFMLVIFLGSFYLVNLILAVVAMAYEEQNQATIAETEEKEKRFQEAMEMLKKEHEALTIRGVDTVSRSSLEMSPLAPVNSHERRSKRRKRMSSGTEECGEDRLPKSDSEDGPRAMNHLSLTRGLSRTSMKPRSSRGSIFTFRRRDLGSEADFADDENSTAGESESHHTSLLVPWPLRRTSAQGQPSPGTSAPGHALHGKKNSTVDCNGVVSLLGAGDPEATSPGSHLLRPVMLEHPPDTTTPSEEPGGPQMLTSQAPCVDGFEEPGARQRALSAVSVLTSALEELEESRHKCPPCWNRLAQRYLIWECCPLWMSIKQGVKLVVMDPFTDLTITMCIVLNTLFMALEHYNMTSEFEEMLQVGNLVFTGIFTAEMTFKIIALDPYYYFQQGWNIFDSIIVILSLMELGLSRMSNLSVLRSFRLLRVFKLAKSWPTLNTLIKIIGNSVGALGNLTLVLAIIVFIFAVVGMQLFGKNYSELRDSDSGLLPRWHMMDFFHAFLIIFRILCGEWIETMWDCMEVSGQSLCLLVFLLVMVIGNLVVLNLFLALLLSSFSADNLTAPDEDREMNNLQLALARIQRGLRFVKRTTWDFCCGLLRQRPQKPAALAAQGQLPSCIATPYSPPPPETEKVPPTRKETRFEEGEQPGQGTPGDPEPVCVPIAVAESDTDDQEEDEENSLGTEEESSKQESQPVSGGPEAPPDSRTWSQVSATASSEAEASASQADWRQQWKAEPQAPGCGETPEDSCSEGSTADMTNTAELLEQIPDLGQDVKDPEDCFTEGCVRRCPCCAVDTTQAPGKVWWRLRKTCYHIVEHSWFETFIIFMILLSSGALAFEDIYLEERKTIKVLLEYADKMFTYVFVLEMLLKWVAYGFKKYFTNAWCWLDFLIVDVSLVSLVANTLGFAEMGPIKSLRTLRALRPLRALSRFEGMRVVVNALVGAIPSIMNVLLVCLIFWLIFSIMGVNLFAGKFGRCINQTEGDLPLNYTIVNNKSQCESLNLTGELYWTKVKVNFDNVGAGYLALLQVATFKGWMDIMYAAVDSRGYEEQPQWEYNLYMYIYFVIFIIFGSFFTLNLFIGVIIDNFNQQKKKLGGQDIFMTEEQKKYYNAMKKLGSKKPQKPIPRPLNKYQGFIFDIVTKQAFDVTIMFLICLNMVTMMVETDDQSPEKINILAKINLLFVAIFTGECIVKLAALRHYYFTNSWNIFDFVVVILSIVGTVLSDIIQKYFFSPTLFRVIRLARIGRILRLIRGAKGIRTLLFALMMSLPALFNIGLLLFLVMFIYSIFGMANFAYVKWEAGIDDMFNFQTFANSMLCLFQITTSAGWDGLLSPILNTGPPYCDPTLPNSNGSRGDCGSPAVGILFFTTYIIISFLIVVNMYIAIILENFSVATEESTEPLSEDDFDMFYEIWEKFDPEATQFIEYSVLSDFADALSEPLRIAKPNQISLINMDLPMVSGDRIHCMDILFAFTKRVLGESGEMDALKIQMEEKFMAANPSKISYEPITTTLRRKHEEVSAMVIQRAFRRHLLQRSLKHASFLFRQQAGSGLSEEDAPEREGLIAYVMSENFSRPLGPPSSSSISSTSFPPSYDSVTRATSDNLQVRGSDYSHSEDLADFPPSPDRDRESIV

By IC50 is commonly meant the concentration that gives 50% inhibition. On to `O=S(=O)(Nc1cscn1)c1cc(Cl)c(N[C@H]2CCN(Cc3ccccc3)C2)cc1F` [Example 258, (S)-4-((1-benzylpyrrolidin-3-yl)amino)-5-chloro-2-fluoro-N-(thiazol-4-yl)benzenesulfonamide formate], for which the IC50 against NaV1.1 amounted to 12.9 µM; on NaV1.6, 7.98 µM; at NaV1.5, 15.4 µM.

For the compound `Cc1cn(C)c(CN2CC[C@H](N(C)c3cc(F)c(S(=O)(=O)Nc4cscn4)cc3C)C2)n1` [Example 150, (S)-4-((1-((1,4-dimethyl-1H-imidazol-2-yl)methyl)pyrrolidin-3-yl)(methyl)amino)-2-fluoro-5-methyl-N-(thiazol-4-yl)benzenesulfonamide], the IC50 on NaV1.1 is above 30 µM; at NaV1.6, 0.954 µM; at NaV1.5, above 30 µM.

With `Cc1cc(S(=O)(=O)Nc2cscn2)c(F)cc1N(C)[C@H]1CCN(Cc2coc(C(C)C)n2)C1` [Example 133, (S)-2-fluoro-4-((1-((2-isopropyloxazol-4-yl)methyl)pyrrolidin-3-yl)(methyl)amino)-5-methyl-N-(thiazol-4-yl)benzenesulfonamide], the IC50 is 10.9 µM on NaV1.1, 0.245 µM on NaV1.6 and above 30 µM on NaV1.5.

Turning to `Cc1cc(S(=O)(=O)Nc2cscn2)c(F)cc1N[C@@H]1CCN(Cc2ccccc2)C1` [Example 271, (R)-4-((1-benzylpyrrolidin-3-yl)amino)-2-fluoro-5-methyl-N-(thiazol-4-yl)benzenesulfonamide formate], the results for the concentration for half-maximal inhibition (IC50) against NaV1.1, on NaV1.6 and on NaV1.5 were 8.7 µM, 4.09 µM and 8.18 µM, respectively.

Take `CN(c1ccc(S(=O)(=O)Nc2nccs2)cc1Cl)C1(C)CCN(Cc2ccccc2)C1` (stereo not drawn) [Example 241, 4-((1-benzyl-3-methylpyrrolidin-3-yl)(methyl)amino)-3-chloro-N-(thiazol-2-yl)benzenesulfonamide]: the IC50 was 9.93 µM on NaV1.1, 0.274 µM on NaV1.6 and 15.1 µM at NaV1.5.

`O=S(=O)(Nc1cccc(F)n1)c1cc(Cl)c(OC2CCN(Cc3ccccc3)CC2)cc1F` [Example 78, 4-((1-benzylpiperidin-4-yl)oxy)-5-chloro-2-fluoro-N-(6-fluoropyridin-2-yl)benzenesulfonamide 2,2,2-trifluoroacetate]: the IC50 against NaV1.1 came out at 8.17 µM; on NaV1.6 it was 6.6 µM; on NaV1.5, 2.86 µM.

Consider `CN(c1cc(F)c(S(=O)(=O)Nc2cscn2)cc1Br)[C@H]1CCN(Cc2ccccc2)C1` [Example 230, (S)-4-((1-benzylpyrrolidin-3-yl)(methyl)amino)-5-bromo-2-fluoro-N-(thiazol-4-yl)benzenesulfonamide 2,2,2-trifluoroacetate], for which the IC50 amounted to 13.1 µM on NaV1.1, 0.967 µM on NaV1.6 and 23 µM on NaV1.5.

On to `C[C@H](c1ccccc1)N1CCC(Oc2cc(F)c(S(=O)(=O)Nc3nccs3)cc2Cl)CC1` [Example 56, (R)-5-chloro-2-fluoro-4-((1-(1-phenylethyl)piperidin-4-yl)oxy)-N-(thiazol-2-yl)benzenesulfonamide 2,2,2-trifluoroacetate], for which the IC50 at NaV1.1 is 12.5 µM; on NaV1.6 it was 0.392 µM; on NaV1.5 it was 10.1 µM.

On to `Cc1ccc(F)c(CN2CC[C@H](N(C)c3ccc(S(=O)(=O)Nc4cscn4)c(F)c3C)C2)n1` [Example 324, (S)-2-fluoro-4-((1-((3-fluoro-6-methylpyridin-2-yl)methyl)pyrrolidin-3-yl)(methyl)amino)-3-methyl-N-(thiazol-4-yl)benzenesulfonamide 2,2,2-trifluoroacetate], for which the IC50 was above 30 µM against NaV1.1, 0.403 µM on NaV1.6 and above 30 µM at NaV1.5.

For `Cc1nc(CN2CC[C@H](N(C)c3cc(F)c(S(=O)(=O)Nc4cscn4)cc3C)C2)c(C)o1` [Example 245, (S)-4-((1-((2,5-dimethyloxazol-4-yl)methyl)pyrrolidin-3-yl)(methyl)amino)-2-fluoro-5-methyl-N-(thiazol-4-yl)benzenesulfonamide 2,2,2-trifluoroacetate], the values for the IC50 against NaV1.1, on NaV1.6 and at NaV1.5 were above 30 µM, 2.12 µM and above 30 µM, respectively.

As to `Cc1c(N(C)[C@H]2CCN(Cc3cccc(C(F)(F)F)n3)C2)cc(F)c(S(=O)(=O)Nc2cscn2)c1F` [Example 224, (S)-2,6-difluoro-3-methyl-4-(methyl(1-((6-(trifluoromethyl)pyridin-2-yl)methyl)pyrrolidin-3-yl)amino)-N-(thiazol-4-yl)benzenesulfonamide 2,2,2-trifluoroacetate], the IC50 at NaV1.1 was 8.89 µM; on NaV1.6, 0.024 µM; on NaV1.5, above 30 µM.

As to `CN(c1ccc(S(=O)(=O)Nc2cscn2)c(F)c1Cl)[C@H]1CCN([C@H]2CCc3ccccc32)C1` [Example 247, 3-chloro-4-(((S)-1-((S)-2,3-dihydro-1H-inden-1-yl)pyrrolidin-3-yl)(methyl)amino)-2-fluoro-N-(thiazol-4-yl)benzenesulfonamide 2,2,2-trifluoroacetate], the IC50 on NaV1.1 was 6.87 µM; on NaV1.6 it was 0.469 µM; at NaV1.5, 14 µM.

Take `C[C@H](c1ccccc1)N1CCC(Oc2ccc(S(=O)(=O)Nc3ncc(F)cn3)cc2Cl)CC1` [Example 304, (R)-3-chloro-N-(5-fluoropyrimidin-2-yl)-4-((1-(1-phenylethyl)piperidin-4-yl)oxy)benzenesulfonamide]: the IC50 at NaV1.1 is above 30 µM; on NaV1.6, 2.48 µM; at NaV1.5, above 30 µM.

Turning to `CC1(C)CN(Cc2cc(Cl)cc(Cl)c2)CCC1Oc1ccc(S(=O)(=O)Nc2ncns2)cc1Cl` (stereo not drawn) [Example 4, 3-chloro-4-((1-(3,5-dichlorobenzyl)-3,3-dimethylpiperidin-4-yl)oxy)-N-(1,2,4-thiadiazol-5-yl)benzenesulfonamide 2,2,2-trifluoroacetate], the values for the IC50 against NaV1.1, at NaV1.6 and on NaV1.5 were above 30 µM, above 30 µM and 11 µM, respectively.

Regarding `Cc1cc(S(=O)(=O)Nc2cscn2)c(F)cc1N(C)[C@H]1CCN(Cc2cscn2)C1` [Example 140, (S)-2-fluoro-5-methyl-4-(methyl(1-(thiazol-4-ylmethyl)pyrrolidin-3-yl)amino)-N-(thiazol-4-yl)benzenesulfonamide], the IC50 against NaV1.1 is above 30 µM; on NaV1.6, 2.08 µM; at NaV1.5 it was above 30 µM.

For `Cc1cc(S(=O)(=O)Nc2cscn2)c(F)cc1N(C)[C@H]1CCN(CC(C)(C)C)C1` [Example 124, (S)-2-fluoro-5-methyl-4-(methyl(1-neopentylpyrrolidin-3-yl)amino)-N-(thiazol-4-yl)benzenesulfonamide formate], the IC50 at NaV1.1 was above 30 µM; at NaV1.6 it was 9.92 µM; on NaV1.5, above 30 µM.

On to `Cc1c(N(C)[C@H]2CCN(Cc3cccc(C(F)F)c3)C2)ccc(S(=O)(=O)Nc2cscn2)c1F` [Example 323, (S)-4-((1-(3-(difluoromethyl)benzyl)-pyrrolidin-3-yl)(methyl)amino)-2-fluoro-3-methyl-N-(thiazol-4-yl)benzenesulfonamide], for which the IC50 at NaV1.1 is 12.3 µM; on NaV1.6, 0.209 µM; on NaV1.5, 13.6 µM.

As to `CC(C)(c1ccccc1)N1CCC(Oc2cc(F)c(S(=O)(=O)Nc3nccs3)cc2Cl)CC1` [Example 60, 5-chloro-2-fluoro-4-((1-(2-phenylpropan-2-yl)piperidin-4-yl)oxy)-N-(thiazol-2-yl)benzenesulfonamide 2,2,2-trifluoroacetate], the IC50 was found to be 13.3 µM on NaV1.1, 0.452 µM at NaV1.6 and 15.9 µM at NaV1.5.

As for `Cc1cc(S(=O)(=O)Nc2cnsc2)c(F)cc1N(C)[C@H]1CCN(Cc2ccccc2)C1` [Example 307, (S)-4-((1-benzylpyrrolidin-3-yl)(methyl)amino)-2-fluoro-N-(isothiazol-4-yl)-5-methyl benzenesulfonamide formate], the IC50 at NaV1.1 worked out at 4.11 µM; at NaV1.6, 5.31 µM; at NaV1.5, 9.79 µM.

Regarding `Cc1ccc(F)c(CN2CC[C@](C)(Nc3ccc(S(=O)(=O)Nc4cscn4)cc3Cl)C2)c1` [Example 266, (S)-3-chloro-4-((1-(2-fluoro-5-methylbenzyl)-3-methylpyrrolidin-3-yl)amino)-N-(thiazol-4-yl)benzenesulfonamide formate], the figures for the concentration for half-maximal inhibition (IC50) against NaV1.1, at NaV1.6 and on NaV1.5 were 2.67 µM, 1.77 µM and 2.06 µM, respectively.

Take `O=S(=O)(Nc1nccs1)c1ccc(OC2CCN(Cc3ccc(C(F)(F)F)cc3)CC2)c(Cl)c1` [Example 23, 3-chloro-N-(thiazol-2-yl)-4-((1-(4-(trifluoromethyl)benzyl)piperidin-4-yl)oxy)benzenesulfonamide 2,2,2-trifluoroacetate]: the IC50 is above 30 µM against NaV1.1, above 30 µM on NaV1.6 and 29.6 µM at NaV1.5.

Turning to `COc1ccc(CN2CCC(Oc3ccc(S(=O)(=O)Nc4nccs4)cc3Cl)CC2)cc1` [Example 48, 3-chloro-4-((1-(4-methoxybenzyl)piperidin-4-yl)oxy)-N-(thiazol-2-yl)benzenesulfonamide], the results for the IC50 at NaV1.1, at NaV1.6 and on NaV1.5 were 10.5 µM, 3.67 µM and 7.82 µM, respectively.

Take `C[C@@H](c1ccccc1)N1CCC(Oc2ccc(S(=O)(=O)Nc3ccncn3)cc2Cl)CC1` [Example 301, (S)-3-chloro-4-((1-(1-phenylethyl)piperidin-4-yl)oxy)-N-(pyrimidin-4-yl)benzenesulfonamide]: the IC50 against NaV1.1 was above 30 µM; on NaV1.6, 2.14 µM; at NaV1.5, above 30 µM.

As for `Cc1ccccc1CN1CC[C@H](N(C)c2cc(F)c(S(=O)(=O)Nc3cscn3)cc2C)C1` [Example 148, (S)-2-fluoro-5-methyl-4-(methyl(1-(2-methylbenzyl)pyrrolidin-3-yl)amino)-N-(thiazol-4-yl)benzenesulfonamide], the figures for the IC50 against NaV1.1, on NaV1.6 and on NaV1.5 were 7.58 µM, 0.129 µM and 12.4 µM, respectively.
